The values that follow come from patent US20040248769A1, “Enzyme inhibitors for inactivating allergens” (priority 2001, published 2004).

“And” between values parts separate entries of the source, which are not always exact repeats. Equal entries are not always repeated. *1 amine or outer side, *2 acyl side, *3 side chain or, on linkers, in order; H or OH if unused. Where a SMILES comes first, the peptide text is derived from it. [ ]: non-standard residue; d: D form. The star is where a group is joined. AMC = Cc1cc(=O)oc2cc(N*)ccc12; pGlu = O=C1CC[C@@H](C(=O)O)N1; Suc = O=C(CCC(=O)[*:2])[*:1]; Bz = O=C(c1ccccc1)*; CH2Cl = ClC*

For assay [1], the system named is Cat1 S3 fur extract proteolytic activity. Briefly: Inhibition of the proteolytic activity in animal fur by proteinase inhibitors. Type of assay: biochemical, cat. The note with it: Cat1 S3, 10 μM inhibitor. As for the experimental part: (§1) […] The assay was begun with substrate and sample and a continuous rate of product formation (nM/min) was measured (v0) for 15 min. The inhibitor was added to a final concentration of 10 μM in negligible volume from stock solution in dimethyl sulfoxide. The assay was continued for a further 15 min.
(§2) Under these conditions reversible inhibition can be measured as the new steady state (v1) with percentage inhibition being 1−(v1/v0)×100. Irreversible inhibition is measured as a second order rate constant and is time dependent but as long as the inhibitor is present in molar excess should always lead eventually to total inhibition. No distinction was made and inhibition is presented as a percentage of full activity. See results table 4.

For assay [2], the system named is Cat1 S1 fur extract proteolytic activity. Kind of assay: Proteolytic activity of fur extract against NHMec substrates. Type of assay: biochemical, cat. The note with it: sample Cat1 S1, 5 μM substrate, 37° C., pH 7.5. The method, then:
(§3) A clean pet brush was used to brush three common English domestic cats. Fur from guinea pigs, rabbit, dogs and horse was collected in the same way. A different brush was used for each species and between brushings these were cleaned thoroughly in a denaturing detergent solution (Fairy® detergent) and then ethanol. The brushings were transferred to a sterile universal container and extracted by shaking in an extraction buffer, 50 mM Tris.HCl, 5 mM CaCl2, pH 7.5 (0.1 g/ml). The solution was recovered by centrifugation and stored at −20° C. in aliquots. Saliva was collected from a mastiff-type dog and stored frozen in aliquots until assayed. Sample aliquots were assayed for proteolytic activity using fluorometric blocked peptidylaminomethylcoumarylamide substrates in the cuvette of a Perkin Elmer fluorimeter at 37° C. The fluorimeter was standardised with a known concentration of methylcoumarin, and the assays were designed so that no more than 10% substrate hydrolysis occurred.
(§4) Assays were performed in assay buffer; 50 mM Tris.HCl, 5 mM CaCl2, 0.1% CHAPS, pH 7.5. Data were collected in real-time on a personal computer using the Flusys software package.
(§5) In the first series of experiments the sample (12 μl) was assayed against a range of serine and cysteine proteinase aminomethylcoumarylamide (NHMec) substrates (obtained commercially from Bachem) under standard conditions of 5 μM substrate concentration (from a 100-fold stock solution in dimethyl sulfoxide) to give a final volume of 120 μl. After addition of substrate the rate without sample was determined (which in all cases was zero), after which the sample was applied and the progress of the reaction was followed for a further 15 min. The slope obtained (fluorescence vs time) was analysed by linear regression and converted to rate of product formation (nM/min) see results table 2.

In assay [3] the test system is Cat2 S1 fur extract proteolytic activity. The description is as above. Type of assay: biochemical, cat. The note with it: sample Cat2 S1, 5 μM substrate, 37° C., pH 7.5. As for the experimental part:
as §3, §4, §5

Assay [4] relates to cat fur enzyme(s). Kind of assay: Rates of cleavage at varying substrate concentration and Km. It counts as biochemical. The following applies: for Rate: cat fur sample. The method, then: as §5
A rough estimate of the Km for the cleavage of Z-Gly-Gly-Arg-NHMec and of Z-Phe-Arg-NHMec by the cat fur enzyme(s) were determined using the same procedure with varying concentrations of these substrates see results table 3.
As the activity follows normal Michaelis-Menten kinetics it is clear that it is due to the activity of one or more biological catalysts or enzymes.

Assay [5] has as its system Cat1 S3 fur extract proteolytic activity. Briefly: Proteolytic activity of fur extract against NHMec substrates. Type of assay: biochemical, cat. The following applies: sample Cat1 S3, 5 μM substrate, 37° C., pH 7.5. As for the experimental part:
as §3, §4, §5

Assay [6] has the same test system. Kind of assay: Determination of Ki for the inhibition of Cat1 S3 by leupeptin. Type of assay: biochemical, cat. Details: V1: unit not given beside the values. As for the experimental part:
The assays were carried out as described above, using 5 μM Z-Gly-Gly-Arg-NHMec as substrate in assay buffer. The assay was begun with substrate and sample and a continuous rate of product formation (nM/min) was measured (v0) for 15 min. […] The assay was continued for a further 15 min.
as §2

The test system of assay [7] is Horse1 S2 fur extract proteolytic activity. Kind of assay: Inhibition of the proteolytic activity in animal fur by proteinase inhibitors. It counts as biochemical, horse. The following applies: Horse1 S2, 10 μM inhibitor, substrate 2 Z-Phe-Arg-NHMec. As for the experimental part:
as §1, §2

In assay [8] the test system is Horse1 S1 mane extract proteolytic activity. Described as above. It counts as biochemical, horse. The following applies: Horse1 S1, 10 μM inhibitor, substrate 2 Z-Phe-Arg-NHMec. The method, then: as §1, §2
For assay [9], the system named is Dog2 S1 fur extract proteolytic activity. The assay is described as above. It counts as biochemical, dog. The note with it: Dog2 S1, 10 μM inhibitor, substrate 2 Z-Phe-Arg-NHMec. As for the experimental part: as §1, §2
In assay [10] the test system is G.pig2 S1 fur extract proteolytic activity. Described as above. Type of assay: biochemical, guinea pig. The following applies: G.pig2 S1, 10 μM inhibitor, substrate 2 Z-Phe-Arg-NHMec. As for the experimental part:
as §1, §2

Where [11] appears, read: substrate 1 Z-Gly-Gly-Arg-NHMec.

In the case of `O=c1oc(Cl)c(Cl)c2ccccc12` [3,4-Dichloroisocoumarin], in assay [1] (setting [11]), the “% Inhibition” value is on record as 35.4% and the “v1 (rate after inhibitor)” value is recorded as 1.837 nM/min.

On to `Cc1cc(=O)oc2cc(NC(=O)[C@H](CCCN=C(N)N)NC(=O)CNC(=O)CNC(=O)OCc3ccccc3)ccc12` [Z-Gly-Gly-Arg-NHMec], for which the Rate in assay [2] is 0.87 nM/min; in assay [3], 1.35 nM/min; in assay [4] ([Substrate] 5 μM) it was 1.47 nM/min; in assay [4] ([Substrate] 10 μM), 2.42 nM/min; in assay [4] ([Substrate] 20 μM), 3.41 nM/min; in assay [4] ([Substrate] 40 μM), 4.82 nM/min and 8.84 nM/min. Moreover, the Rate is recorded as 10.01 nM/min in [4] ([Substrate] 60 μM), 13.27 nM/min in assay [4] ([Substrate] 80 μM), 11.40 nM/min in [4] ([Substrate] 100 μM) and 13.49 nM/min in [4] ([Substrate] 125 μM). Besides, the Km in assay [4] (non-linear regression, Enzfitter, rough estimate) was 95 ± 47 µM.

Regarding `Cc1cc(=O)oc2cc(NC(=O)[C@H](Cc3ccccc3)NC(=O)[C@H](C)NC(=O)[C@H](C)NC(=O)CCC(=O)O)ccc12` [Suc-Ala-Ala-Phe-NHMec] (Suc-Ala-Ala-Phe-{AMC}), the Rate entry is reported as “No activity” in assay [2] and 0.03 nM/min in [3].

Regarding `Cc1cc(=O)oc2cc(NC(=O)[C@H](CCCN=C(N)N)NC(=O)[C@@H](NC(=O)[C@H](Cc3ccccc3)NC(=O)c3ccccc3)C(C)C)ccc12` [Bz-Phe-Val-Arg-NHMec] (Bz-Phe-Val-Arg-{AMC}), the Rate in [5] was determined as 32.1 nM/min.

Take `CC(C)C[C@H](NC(=O)[C@H]1O[C@@H]1C(=O)O)C(=O)NCCCCN=C(N)N` (relative stereo) [E64, L-trans epoxysuccinyl-leucylamido-4-guanidino-butane]: in [1] (setting [11]), the “% Inhibition” value was determined as 20.4% and the “v1 (rate after inhibitor)” value is recorded as 2.005 nM/min.

For the molecule `N=C(N)SCCCOc1oc(=O)c2cc(NC(=O)NCc3ccccc3)ccc2c1Cl` [PhCH2NHCONH-CiTPrOIC], in assay [1] (substrate 2 Z-Phe-Arg-NHMec), the “% Inhibition” value was determined as 100% and the “v1 (rate after inhibitor)” value stood at 0 nM/min.

Turning to `CC(=O)N[C@@H](CC(C)C)C(=O)N[C@@H](CC(C)C)C(=O)N[C@H](C=O)CCCNC(=N)N` [Leupeptin, acetyl-Leu-Leu-Arg-CHO], the “% Inhibition” value in [6] (Cat1 S3, [I] 0.5 nM) is on record as 25.0%; in assay [6] (Cat1 S3, [I] 1.0 nM) it was 24.3%; in assay [6] (Cat1 S3, [I] 5.0 nM), 37.9%; in assay [6] (Cat1 S3, [I] 10.0 nM), 53.2%; in assay [6] (Cat1 S3, [I] 50.0 nM) it was 68.7%; in assay [6] (Cat1 S3, [I] 100.0 nM), 78.0%. The “% Inhibition” value in assay [1] (setting [11]) came out at 100%. Also, the V1 came out at 6.0 in assay [6] (Cat1 S3, [I] 0.5 nM); 5.6 in [6] (Cat1 S3, [I] 1.0 nM); 4.9 in assay [6] (Cat1 S3, [I] 5.0 nM); 4.4 in assay [6] (Cat1 S3, [I] 10.0 nM); 2.6 in assay [6] (Cat1 S3, [I] 50.0 nM); 1.8 in [6] (Cat1 S3, [I] 100.0 nM). Also, the Ki in assay [6] (found using the Enzfitter software package, read-out: Kl for the inhibition of Cat1 S3) was determined as 2.64 nM. Besides, the “v1 (rate after inhibitor)” value in [1] (setting [11]) came out at 0 nM/min.

In the case of Aprotinin, in [1] (setting [11]), the “% Inhibition” value stood at 89.6% and the “v1 (rate after inhibitor)” value came out at 0.292 nM/min.

For the molecule `NC(N)=NCCC[C@H](NC(=O)CNC(=O)[C@@H](N)CCC(=O)O)C(=O)CCl` [H-Glu-Gly-Arg-chloromethane] (H-Glu-Gly-Arg-CH2Cl), in [1] (setting [11]), the “% Inhibition” value is given as 98.7% and the “v1 (rate after inhibitor)” value is on record as 0.143 nM/min.

As for `Cc1cc(=O)oc2cc(NC(=O)[C@H](Cc3ccccc3)NC(=O)[C@@H]3CCCN3C(=O)[C@H](C)NC(=O)[C@H](C)NC(=O)CCC(=O)O)ccc12` [Suc-Ala-Ala-Pro-Phe-NHMec] (Suc-AAPF-{AMC}), the figures for the Rate in assay [2] and in assay [3] were 0.04 nM/min and 0.05 nM/min, respectively.

With `N=C(N)SCCCOc1oc(=O)c2cc(N)ccc2c1Cl` [ACITIC, 7-amino-4-chloro-3-(-3-isothiureido-propoxy) isocoumarin], the “% Inhibition” value in [7] came out at 100%; in [8] it was 100%; in [9] it was 71.2%; in assay [10] it was 94.8%; in [1] (setting [11]), 100%. Moreover, the “v1 (rate after inhibitor)” value in assay [7] came to 0 nM/min; in assay [8] it was 0 nM/min; in [9] it was 0.184 nM/min; in assay [10], 0.964 nM/min; in [1] (setting [11]), 0.002 nM/min.

Turning to `Cc1cc(=O)oc2cc(NC(=O)[C@H](CCCN=C(N)N)NC(=O)[C@H](CCCCN)NC(=O)[C@@H](NC(=O)[C@H](CCCN=C(N)N)NC(=O)[C@@H]3CCC(=O)N3)[C@@H](C)O)ccc12` [Pyr-Arg-Thr-Lys-Arg-NHMec] ([pGlu]RTKR-{AMC}), the Rate in assay [2] stood at 0.58 nM/min; in assay [3], 0.33 nM/min.

As to `Cc1cc(=O)oc2cc(NC(=O)[C@@H](NC(=O)[C@@H]3CCCN3C(=O)[C@H](C)NC(=O)[C@H](C)NC(=O)CCC(=O)O)C(C)C)ccc12` [Suc-Ala-Ala-Pro-Val-NHMec] (Suc-AAPV-{AMC}), the Rate result in [2] and in [3] was “No activity” in each case.

As for `Cc1cc(=O)oc2cc(NC(=O)[C@H](C)NC(=O)[C@H](C)NC(=O)[C@H](C)NC(=O)CCC(=O)O)ccc12` [Suc-Ala-Ala-Ala-NHMec], the Rate entry in assay [2] and in [3] was “No activity” in each case.

For the molecule `Cc1cc(=O)oc2cc(NC(=O)[C@H](CCCCN)NC(=O)[C@H](Cc3ccccc3)NC(=O)[C@H](C)NC(=O)CCC(=O)O)ccc12` [Suc-Ala-Phe-Lys-NHMec] (Suc-Ala-Phe-Lys-{AMC}), the Rate result in assay [2] and in assay [3] was “No activity” in each case.

What is called % Inhibition is the drop in the measured response relative to a control, in per cent. Broadly, the Km is the substrate concentration at which the rate is half of its maximum.
